In PubChem BioAssay (NCI) one finds TGI data, which are given here for seven compounds.

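48-hour exposure; five concentrations; linearly interpolated endpoints. TGI denotes the concentration required for complete inhibition of growth.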

One assay relates to KM12 colon. The assay can be described thus: NCI-60 cell line screen, 48 h.
For the compound `CC1(C)C=Cc2c(cc(O)c3c(=O)c4cc(Cl)ccc4[nH]c23)O1`, the TGI stood at 8.75 µM.
The same measure, in the same setting: the value for `O=C(NC1CCCCC1NC(c1ccccc1)(c1ccccc1)c1ccccc1)C(=O)NC1CCCCC1NC(c1ccccc1)(c1ccccc1)c1ccccc1` (configuration not stated) was more than 100 µM; that for `CS(=O)(=O)OCC1CN(S(C)(=O)=O)c2cc(O)ccc21` (configuration not stated) was 13 µM; that for `O=C(O)C12C3CCC(CC3)C1(C(=O)O)C1CCC2C1` (configuration not stated) was more than 100 µM.
Regarding `CC1=NC(=Cc2cccc(Cl)c2)C(=O)N1n1c(-c2ccccc2)nc2ccccc2c1=O`, the TGI is more than 100 µM.
Turning to `CO/C(=N\N=C\c1ccc(OC)c(OC)c1)c1ccncc1`, the TGI was more than 10 µM.
On the same count and under the same terms, the value for `CC(C)(C)OC(=O)N/N=C(/N)Cc1ccc(Cl)cc1` was more than 100 µM.

The subject of the next assay is OVCAR-4 ovarian. Kind of assay: NCI-60 cell line screen, 48 h.
Compound `CC1(C)C=Cc2c(cc(O)c3c(=O)c4cc(Cl)ccc4[nH]c23)O1` gave a TGI of more than 10 µM.
Still for that read-out and setting: the value for `O=C(NC1CCCCC1NC(c1ccccc1)(c1ccccc1)c1ccccc1)C(=O)NC1CCCCC1NC(c1ccccc1)(c1ccccc1)c1ccccc1` (configuration not stated) was 76.3 µM; that for `CS(=O)(=O)OCC1CN(S(C)(=O)=O)c2cc(O)ccc21` (configuration not stated) was 7.65 µM; that for `CO/C(=N\N=C\c1ccc(OC)c(OC)c1)c1ccncc1` was more than 10 µM.
For `CC(C)(C)OC(=O)N/N=C(/N)Cc1ccc(Cl)cc1`, the TGI was more than 100 µM.

Another assay deals with CCRF-CEM leukemia. Kind of assay: NCI-60 cell line screen, 48 h.
Compound `CC1(C)C=Cc2c(cc(O)c3c(=O)c4cc(Cl)ccc4[nH]c23)O1` gave a TGI of more than 10 µM.
The same measure, in the same setting: the value for `O=C(NC1CCCCC1NC(c1ccccc1)(c1ccccc1)c1ccccc1)C(=O)NC1CCCCC1NC(c1ccccc1)(c1ccccc1)c1ccccc1` (configuration not stated) was more than 100 µM.
The same measure, in the same setting: the value for `CS(=O)(=O)OCC1CN(S(C)(=O)=O)c2cc(O)ccc21` (configuration not stated) was 5.76 µM; that for `O=C(O)C12C3CCC(CC3)C1(C(=O)O)C1CCC2C1` (configuration not stated) was more than 100 µM; that for `CC1=NC(=Cc2cccc(Cl)c2)C(=O)N1n1c(-c2ccccc2)nc2ccccc2c1=O` was more than 100 µM.
The same measure, in the same setting: the value for `CO/C(=N\N=C\c1ccc(OC)c(OC)c1)c1ccncc1` was more than 10 µM; that for `CC(C)(C)OC(=O)N/N=C(/N)Cc1ccc(Cl)cc1` was more than 100 µM.

The next assay has as its system SF-539 CNS. Kind of assay: NCI-60 cell line screen, 48 h.
In turn, `CC1(C)C=Cc2c(cc(O)c3c(=O)c4cc(Cl)ccc4[nH]c23)O1` returned a TGI of more than 10 µM.
On the same count and under the same terms, the value for `O=C(NC1CCCCC1NC(c1ccccc1)(c1ccccc1)c1ccccc1)C(=O)NC1CCCCC1NC(c1ccccc1)(c1ccccc1)c1ccccc1` (configuration not stated) was more than 100 µM; that for `CS(=O)(=O)OCC1CN(S(C)(=O)=O)c2cc(O)ccc21` (configuration not stated) was 7 µM.
Compound `O=C(O)C12C3CCC(CC3)C1(C(=O)O)C1CCC2C1` (configuration not stated) returned a TGI of more than 100 µM.
Same read-out and setting: the value for `CC1=NC(=Cc2cccc(Cl)c2)C(=O)N1n1c(-c2ccccc2)nc2ccccc2c1=O` was more than 100 µM; that for `CO/C(=N\N=C\c1ccc(OC)c(OC)c1)c1ccncc1` was more than 10 µM.

The test system of the next assay is OVCAR-5 ovarian. Kind of assay: NCI-60 cell line screen, 48 h.
As to `CC1(C)C=Cc2c(cc(O)c3c(=O)c4cc(Cl)ccc4[nH]c23)O1`, the TGI was found to be 6.16 µM.
On the same count and under the same terms, the value for `O=C(NC1CCCCC1NC(c1ccccc1)(c1ccccc1)c1ccccc1)C(=O)NC1CCCCC1NC(c1ccccc1)(c1ccccc1)c1ccccc1` (configuration not stated) was more than 100 µM; that for `CS(=O)(=O)OCC1CN(S(C)(=O)=O)c2cc(O)ccc21` (configuration not stated) was 18.3 µM.
On the same count and under the same terms, the value for `O=C(O)C12C3CCC(CC3)C1(C(=O)O)C1CCC2C1` (configuration not stated) was more than 100 µM; that for `CC(C)(C)OC(=O)N/N=C(/N)Cc1ccc(Cl)cc1` was more than 100 µM.

The next assay relates to SNB-75 CNS. The assay can be described thus: NCI-60 cell line screen, 48 h.
For `CC1(C)C=Cc2c(cc(O)c3c(=O)c4cc(Cl)ccc4[nH]c23)O1`, the TGI was more than 10 µM.
For `O=C(NC1CCCCC1NC(c1ccccc1)(c1ccccc1)c1ccccc1)C(=O)NC1CCCCC1NC(c1ccccc1)(c1ccccc1)c1ccccc1` (configuration not stated), the TGI is 8.65 µM.
The compound `CS(=O)(=O)OCC1CN(S(C)(=O)=O)c2cc(O)ccc21` (configuration not stated) returned a TGI of 7.43 µM.
Same read-out and setting: the value for `O=C(O)C12C3CCC(CC3)C1(C(=O)O)C1CCC2C1` (configuration not stated) was more than 100 µM.
Still for that read-out and setting: the value for `CC1=NC(=Cc2cccc(Cl)c2)C(=O)N1n1c(-c2ccccc2)nc2ccccc2c1=O` was more than 100 µM; that for `CO/C(=N\N=C\c1ccc(OC)c(OC)c1)c1ccncc1` was more than 10 µM.
Same read-out and setting: the value for `CC(C)(C)OC(=O)N/N=C(/N)Cc1ccc(Cl)cc1` was more than 100 µM.

In a further assay the test system is SK-OV-3 ovarian. Kind of assay: NCI-60 cell line screen, 48 h.
In turn, `CC1(C)C=Cc2c(cc(O)c3c(=O)c4cc(Cl)ccc4[nH]c23)O1` gave a TGI of more than 10 µM.
`O=C(NC1CCCCC1NC(c1ccccc1)(c1ccccc1)c1ccccc1)C(=O)NC1CCCCC1NC(c1ccccc1)(c1ccccc1)c1ccccc1` (configuration not stated) had a TGI of 92.8 µM.
On the same count and under the same terms, the value for `O=C(O)C12C3CCC(CC3)C1(C(=O)O)C1CCC2C1` (configuration not stated) was more than 100 µM; that for `CC1=NC(=Cc2cccc(Cl)c2)C(=O)N1n1c(-c2ccccc2)nc2ccccc2c1=O` was more than 100 µM; that for `CO/C(=N\N=C\c1ccc(OC)c(OC)c1)c1ccncc1` was more than 10 µM.
On the same count and under the same terms, the value for `CC(C)(C)OC(=O)N/N=C(/N)Cc1ccc(Cl)cc1` was more than 100 µM.

The test system of a further assay is UO-31 renal. The assay can be described thus: NCI-60 cell line screen, 48 h.
`CC1(C)C=Cc2c(cc(O)c3c(=O)c4cc(Cl)ccc4[nH]c23)O1`: the TGI stood at 5.91 µM.
Compound `O=C(NC1CCCCC1NC(c1ccccc1)(c1ccccc1)c1ccccc1)C(=O)NC1CCCCC1NC(c1ccccc1)(c1ccccc1)c1ccccc1` (configuration not stated) yielded a TGI of more than 100 µM.
Still for that read-out and setting: the value for `CS(=O)(=O)OCC1CN(S(C)(=O)=O)c2cc(O)ccc21` (configuration not stated) was 11.1 µM; that for `O=C(O)C12C3CCC(CC3)C1(C(=O)O)C1CCC2C1` (configuration not stated) was more than 100 µM.
Still for that read-out and setting: the value for `CC1=NC(=Cc2cccc(Cl)c2)C(=O)N1n1c(-c2ccccc2)nc2ccccc2c1=O` was more than 100 µM; that for `CO/C(=N\N=C\c1ccc(OC)c(OC)c1)c1ccncc1` was more than 10 µM.
`CC(C)(C)OC(=O)N/N=C(/N)Cc1ccc(Cl)cc1`: the TGI was more than 100 µM.

Another assay concerns 786-0 renal. Kind of assay: NCI-60 cell line screen, 48 h.
With `CC1(C)C=Cc2c(cc(O)c3c(=O)c4cc(Cl)ccc4[nH]c23)O1`, the TGI is more than 10 µM.
On the same count and under the same terms, the value for `O=C(NC1CCCCC1NC(c1ccccc1)(c1ccccc1)c1ccccc1)C(=O)NC1CCCCC1NC(c1ccccc1)(c1ccccc1)c1ccccc1` (configuration not stated) was more than 100 µM; that for `CS(=O)(=O)OCC1CN(S(C)(=O)=O)c2cc(O)ccc21` (configuration not stated) was 12 µM.
Still for that read-out and setting: the value for `O=C(O)C12C3CCC(CC3)C1(C(=O)O)C1CCC2C1` (configuration not stated) was more than 100 µM; that for `CC1=NC(=Cc2cccc(Cl)c2)C(=O)N1n1c(-c2ccccc2)nc2ccccc2c1=O` was more than 100 µM; that for `CO/C(=N\N=C\c1ccc(OC)c(OC)c1)c1ccncc1` was more than 10 µM.
Same read-out and setting: the value for `CC(C)(C)OC(=O)N/N=C(/N)Cc1ccc(Cl)cc1` was more than 100 µM.
